Data: patent publication US20060147481A1 (priority 2005, published 2006)

What was measured:
platelet cyclo-oxygenase = conditions: horse, oral; cited from earlier work
chronic laminitis = assay: Horse with chronic laminitis, Ketoprofen in the water; type: in vivo; conditions: 1 mg per pound in the water for 2 weeks
Description: An equine client with a horse with chronic laminitis was using phenylbutazone to try to control the inflammation and pain associated with the disease. This product had to be given to the horse daily by the owner. […] The results were very good.

[1] = test system: PRRS (Porcine Respiratory and Reproductive Syndrome) Virus; assay: PRRS virus outbreak in swine nursery, Ketoprofen orally; type: in vivo; conditions: orally for 7 days along with same other therapy as controls
Description: A swine client with a 10,000 head nursery was experiencing severe mortality due to a PRRS (Porcine Respiratory and Reproductive Syndrome) Virus outbreak. They had used antibiotics with only partial success and were seeing mortalities as high as 30 percent in the group. […] We also saw less chronic pigs in the treatment group 3% versus 15% in the controls.

swine influenza = type: in vivo, swine (finishing hogs)
[2] = 1 mg/pound for 3 days orally through drinking water

Compound | duration of inhibition of platelet cyclo-oxygenase (platelet cyclo-oxygenase) [h] | pain compared with previous treatment (phenylbutazone) (chronic laminitis) | chronic pigs [1] [%] | mortality [1] [%] | morbidity at the time of the outbreak (swine influenza; [2]) [%] | mortality (swine influenza; [2]) [%] | average time to market, less than the control group (swine influenza; 1 mg/pound for 3 days orally through drinking water, 150 pound hogs marketed at 260 pounds) [days] | follow-up mass medication with antibiotics (swine influenza; two weeks after the outbreak)
CN=C1CCN(c2cccc(C(F)(F)F)c2)N1 [BW540C] | 24 | – | – | – | – | – | – | –
CC(C(=O)O)c1cccc(C(=O)c2ccccc2)c1 (centres unmarked) [Ketoprofen] | – | less painful | 3 | 7 | 10 | 2.1 | 9 | did not require any mass medication with antibiotics
